From US12622919B2, “Methods for treating hypervirulent Klebsiella pneumoniae infection” (priority 2023, dated 2026)

Assays:
[1] = tested on: K. pneumoniae strain 17ZR101 (K2 hvKp clinical strain); experiment: Antibiotic susceptibility test (microdilution), strain 17ZR101; type: cell-based, Klebsiella pneumoniae; details: CLSI
Method: (§1) The antimicrobial susceptibility of the two Klebsiella strains was determined by the microdilution method according to the guidelines recommended by the Clinical and Laboratory Standards Institute^2. Escherichia coli strain ATCC 25922 was included as a quality control strain. All tests were performed in duplicate, and each test included three biological replicates.

[2] = tested on: K. pneumoniae strain HKU1 (clinical cKp strain); experiment: Antibiotic susceptibility test (microdilution), strain HKU1; type: cell-based, Klebsiella pneumoniae; details: CLSI
Method: as §1

[3] = tested on: hvKp strain 17ZR101; experiment: Mouse sepsis model, ~10^4 CFU 17ZR101, drug at 3 hpi: survival, body weight, spleen weight; type: in vivo, C57BL6 mice
Method: All animal experiments were approved by the Animal Ethics Committee of the City University of Hong Kong and followed the guidelines of the Institutional Laboratory Animal Research Unit. Six- to eight-weeks-old animals of both sexes were used in this study. For the sepsis model, mice were intravenously injected with ˜10^4 colony forming units (CFU) of the test stain resuspended in 200 μL PBS. For the pneumonia model, mice were anesthetized by inhaling isoflurane, and ˜10^6 CFU of the strain resuspended 10 μL PBS were dripped into the mouse's nasal cavity. The heads of the mice were hold upright for 30 s afterwards.
(§2) In ASA, NPXS, CTX, AzA, CsA, DXMS, and F-ara treatment experiment, mice challenged by 17ZR101 were given intraperitoneally 100 mg kg^−1 ASA, 50 mg kg^−1 NPXS, 150 mg kg^−1 CTX, 200 mg kg^−1 AzA, 20 mg kg^−1 CsA, 10 mg kg^−1 DXMS and 40 mg kg^−1 F-ara at 3 hpi, another group treated with an equal volume of PBS or 200 μL of corn oil solution was included as a control group. In ASA and CAZ/AVI combination treatment experiment, mice were given intraperitoneally 100 mg kg^−1 ASA plus 8 mg kg^−1 CAZ and 4 mg kg^−1 AVI or 8 mg kg^−1 CAZ and 4 mg kg^−1 AVI at 1 hpi. The health status and weight of all mice were observed and recorded.

[4] = tested on: IL-6; experiment: Serum IL-6 by ELISA in 17ZR101-infected mice; type: in vivo, C57BL6 mice; details: 17ZR101-infected mice treated with ASA; untreated 587.965
Method: (§3) The serum level of IL-6 of the test animals was measured by using the IL-6 Mouse Uncoated ELISA Kit (Thermo fisher scientific, 88-7064-88), IL-1β level by IL-1 beta Mouse Uncoated ELISA Kit (Thermo fisher scientific, 88-7013-86) and that of IFN-γ was measured by using the IFN gamma Mouse Uncoated ELISA Kit (Thermo fisher scientific, 88-7314-88) according to instructions of the manufacturer.
as §2

[5] = tested on: Stat1 and STAT1-regulated chemokines, M1 markers, Cox-1, Cox-2; experiment: RNA-Seq / qPCR of lung cells of 17ZR101-infected mice; type: in vivo, C57BL6 mice
Method: RNA was extracted from lung samples by homogenization in TRIzol reagent (15596026, Thermo Fisher Scientific), followed by chloroform extraction and isopropanol precipitation. The extracted RNA was reverse-transcribed into cDNA by using a SuperScript® III First-Strand Synthesis SuperMix kit (11752050, ThermoFisher Scientific). Real-time quantitative PCR was performed by using a QuantStudio™ 7 Pro Real-Time PCR System, following the manufacturer's instructions. cDNA samples were tested in duplicates, and the relative amount of mRNA in different samples (Gapdh, Il1b, Ifng, Cxcl2, Cxcl10, Ifna, Ifnb, Ifnar1, Stat1, Hmgb1, Il-6, Myd88, and Tlr4) was determined by the comparative threshold cycle (ΔΔCT) method, using the glyceraldehyde-3-phosphate dehydrogenase gene (Gapdh) for normalization.
Total RNA was extracted from lung samples by homogenization in TRIzol reagent, followed by chloroform extraction and isopropanol precipitation. DNA was removed by DNase treatment (TURBO DNA-Free™ Kit). RNA samples were sent to Novogene (HK) Company Limited for sequencing. Routine procedures of mRNA purification and library generation were performed by Novogene. Sequencing reads alignment was performed by using HISAT2. Count aligned reads and quantification were calculated based on exon regions using FeatureCounts. […] Gene Set Enrichment Analysis was performed for gene ontology enrichment analysis. The raw RNA-seq data has been deposited in NCBI database under the accession number PRJNA851242.
as §2

[6] = tested on: F4/80+ cells (IMs), neutrophils in lungs; experiment: Flow cytometry of lung cells, 10^4 CFU 17ZR101 sepsis model; type: in vivo, C57BL6 mice; details: ASA at 3 hpi
Method: (§4) Cells collected from different tissues of the test animals were subjected to flow cytometry analysis as described previously^4. Cells from spleens were obtained by mashing the organ through a 70-μm cell strainer and collected in a tube containing RPMI 1640 medium supplemented with 5% fetal bovine serum. To prepare lung cells, lung tissues were excised and incubated in HBSS containing 1×HEPES and Collagenase type I. The tissue fragments were forced through a 70-μm strainer as described above. Red blood cells were lysed with ACK lysing buffer.
Dead cells were excluded from the analysis by propidium iodide (Sigma-Aldrich Corporation, P4170-1G) or ghost Dye™ violet 510 (Tonbo Biosciences, 13-0870-T100) staining in all flow cytometry experiments. Fluorescently labeled mAbs against mouse CD45, CD11b, CD206, CD80, Ly6G, CD11c, SiglecF, Ly6C and appropriate isotype controls were obtained from Biolegend. For intracellular cytokine measurement, cells were incubated with Cell Activation Cocktail (BioLegend, 423303) at 37° C. in the dark for 4 h. Anti-IFN-γ-PE antibody (eBioscience, 12-7177-81) was used to determine intracellular expression of IFN-γ. For p-STAT1 measurement, the cells were fixed with IC fixation buffer (eBioscience, 00-8222-49) for 30 min and then suspended in 1 mL of methanol to permeabilize the cell membrane, left to stand for 10 min on ice. At the time of p-STAT1 measurement, the cell suspensions were washed with FACS buffer and then stained with PE-anti-STAT1 Phospho antibody (Biolegend, 686404). […] The acquired data were analyzed by the FlowJo software (Version 10.0.7, Treestar, Palo Alto, CA).
as §2, with “In ASA and CAZ/AVI combination treatment experiment, mice were given intraperitoneally 100 mg kg^−1 ASA plus 8 mg kg^−1 CAZ and 4 mg kg^−1 AVI or 8 mg kg^−1 CAZ and 4 mg kg^−1 AVI at 1 hpi.” left out

[7] = tested on: F4/80+ cells and Ly6G+ cells in lungs; experiment: Flow cytometry of lung cells at 4 hpi, 10^7 CFU hvKp; type: in vivo, C57BL6 mice
Method: as §4
Dead cells were excluded from the analysis by propidium iodide (Sigma-Aldrich Corporation, P4170-1G) or ghost Dye™ violet 510 (Tonbo Biosciences, 13-0870-T100) staining in all flow cytometry experiments. […] The acquired data were analyzed by the FlowJo software (Version 10.0.7, Treestar, Palo Alto, CA).
as §2, with “In ASA and CAZ/AVI combination treatment experiment, mice were given intraperitoneally 100 mg kg^−1 ASA plus 8 mg kg^−1 CAZ and 4 mg kg^−1 AVI or 8 mg kg^−1 CAZ and 4 mg kg^−1 AVI at 1 hpi.” left out

[8] = tested on: hvKp strain 17ZR101; experiment: Bacteria burden in organs, 10^7 CFU hvKp; type: in vivo, C57BL6 mice; details: 4 hpi
Method: Ten-fold dilutions of tissue homogenate were prepared and spread onto MacConkey agar plates containing 2 μg mL^−1 cefotaxime to determine the bacterial load in different organs of the infected animals. To determine the number of intracellular bacteria, cells prepared for flow cytometry from lungs and spleens were collected and then incubated with 300 μg mL^−1 amikacin to kill the extracellular bacteria. The number of total and intracellular bacteria was counted and presented as the number of CFU g^−1 tissue.
as §2

[9] = tested on: IFN-γ; experiment: Serum IFN-γ by ELISA in 17ZR101-infected mice; type: in vivo, C57BL6 mice; details: 17ZR101-infected mice treated with F-ara; untreated 2742.872
Method: as §3, §2

[10] = RNA-Seq lung cells, 17ZR101+ASA vs 17ZR101, unit not given

## CN(C)c1cc(NC(=O)CNC(C)(C)C)c(O)c2c1C[C@H]1C[C@H]3[C@H](N(C)C)C(O)=C(C(N)=O)C(=O)[C@@]3(O)C(O)=C1C2=O [tigecycline]
[1]
  antimicrobial susceptibility: susceptible
[2]
  antimicrobial susceptibility: susceptible

## CC(=O)Oc1ccccc1C(=O)O [ASA, acetylsalicylic acid]
[3]; 12 hpi, ASA 100 mg kg^−1 i.p. at 3 hpi, untreated 0.863%
  spleen/body weight ratio: 0.495%
[3]; 12 hpi, ASA 100 mg kg^−1 i.p. at 3 hpi, untreated 7.206%
  bodyweight loss: 2.076%
[3]; 17ZR101 infection, 100 mg kg^−1 ASA i.p. at 3 hpi, at 48 hpi
  mice protected (survival): 100%
[4]
  serum IL-6 production: 57.964 pg/mL
[5]; RNA-Seq and qPCR, lung cells, ASA
  expression level of M1 macrophage markers: decrease in expression level of M1 macrophage markers
[5]; [10]
  Cxcl9 expression change: −2.118
  Cxcl10 expression change: −3.590
  Cxcl11 expression change: −2.098
[5]; RNA-Seq lung cells, 17ZR101+ASA vs 17ZR101, unit not printed here (Log 2 fold change)
  Stat1 expression change: −1.056
[5]; upon ASA administration
  Cox-1 and Cox-2 expression at the mRNA level: no significant difference
[6]
  F4/80+ cells infiltration into the lungs: suppressed F4/80^+ cells infiltration into the lungs
  levels of neutrophils in the lungs: slight decrease
[6]; CD80 MFI
  M1 macrophage polarization: able to inhibit M1 macrophage polarization
[7]
  F4/80+ cells infiltration in lungs: could suppress F4/80^+ cells infiltration
  Ly6G+ cells in lungs: not significantly
[8]
  bacteria burden in various organs: without contributing to bacteria clearance

## NCC[C@H](O)C(=O)N[C@@H]1C[C@H](N)[C@@H](O[C@H]2O[C@H](CN)[C@@H](O)[C@H](O)[C@H]2O)[C@H](O)[C@H]1O[C@H]1O[C@H](CO)[C@@H](O)[C@H](N)[C@H]1O [amikacin]
[1]
  antimicrobial susceptibility: susceptible
[2]
  antimicrobial susceptibility: susceptible

## C[C@@H](O)[C@H]1C(=O)N2C(C(=O)O)=C(S[C@@H]3CN[C@H](C(=O)N(C)C)C3)[C@H](C)[C@H]12 [meropenem]
[1]
  antimicrobial susceptibility: resistant
[2]
  antimicrobial susceptibility: resistant

## CO/N=C(\C(=O)N[C@@H]1C(=O)N2C(C(=O)O)=C(COC(C)=O)CS[C@H]12)c1csc(N)n1 [cefotaxime]
[1]
  antimicrobial susceptibility: resistant
[2]
  antimicrobial susceptibility: resistant

## polymyxin B
[1]
  antimicrobial susceptibility: susceptible
[2]
  antimicrobial susceptibility: susceptible

## CC(C)(O/N=C(\C(=O)N[C@@H]1C(=O)N2C(C(=O)[O-])=C(C[n+]3ccccc3)CS[C@H]12)c1csc(N)n1)C(=O)O [ceftazidime]
[1]
  antimicrobial susceptibility: resistant
[2]
  antimicrobial susceptibility: resistant

## Nc1nc(F)nc2c1ncn2[C@@H]1O[C@H](CO)[C@@H](O)[C@@H]1O [F-ara, Fludarabine]
[3]; 17ZR101 infection, 40 mg kg^−1 F-ara i.p. at 3 hpi, within 48 h
  mice protected from death: 50%
[9]
  serum IFN-γ level: 445.133 pg/mL

## O=P1(N(CCCl)CCCl)NCCCO1 (stereo not shown) [cyclophosphamide]
[3]; 17ZR101 infection, 150 mg kg^−1 CTX i.p. at 3 hpi
  protective effect (survival): did not exhibit any protective effect
